Results reported in US6838592B1, “Methods for the identification of compounds for the treatment of alzheimer's disease” (Nathan S. Kline Institute for Psychiatric Research, priority 1999, dated 2005).
“Also recorded” adds a separate entry of the source. Non-standard residues stand in square brackets, D forms with d. Residues, ends and D or L forms follow the SMILES beside them. *: point of attachment. Sta = CC(C)C[C@H](N)[C@@H](O)CC(=O)O; Isovaleryl = CC(C)CC(=O)*

Legend:
[1] = tested on: lipofuscin-like material in neurons; conditions: chronic inhibition (7+days) by infusion; cited from earlier work
[2] = tested on: Aβ; assay: Total Aβ by ELISA after formic acid extraction in PS1M146L/APPswe transgenic mice infused with protease inhibitor; type: in vivo; conditions: infusion from 8 to 12 weeks of age
Description: We also performed protease inhibitor infusion experiments in PS1M146L/APPswe transgenic mice. Infusion pumps containing either 2 mg/mL pepstatin or 10 mg/mL leupeptin were implanted into PS1M146L/APPswe transgenic mice at 8 weeks of age. Animals were sacrificed at 12 weeks of age, and total Aβ levels were determined by ELISA following formic acid extraction (FIG. 10A). […] Leupeptin treatment, on the other hand, increased total Aβ by 1.8 times when compared to untreated mice. We have additionally measured the activity of Cat D in the brains of untreated, pepstatin-treated, or leupeptin-treated mice (FIG. 10B).
The Aβ sandwich ELISA is generally known to those skilled in the art, with both Aβ ELISA kits (Biosource International, Camavillo, Calif.) and appropriate antibodies (e.g., 4G8, GE10; Seneteck, PLC, Napa, Calif.) available commercially. For the Aβ sandwich ELISA, Nunc-Immuno Plates (Nunc A/S Roskilde, Denmark) were coated overnight at […] using antibodies specific for Aβ40 or Aβ42 in 100 mM bicarbonate buffer, pH 9.6. […] Aβ was detected by incubating for 4 hours at room temperature with an HPR-conjugated anti-Aβ antibody in 20 mM Na phosphate, 2 mM EDTA, 400 mM NaCl, 1.0% BSA. ELISA plates were developed using a color reaction (ABTS Peroxidase Substrate System, Kirkegaard & Perry, Gaithersburg, Md.) and the OD450 read.

[3] = target: T1, Cat D (Mus musculus, UniProt P18242); assay: Cat D activity in brains of PS1M146L/APPswe transgenic mice infused with protease inhibitor; type: in vivo; conditions: 2 mg/mL pepstatin or 10 mg/mL leupeptin, vs untreated
T1 construct: from tissue; host or cells: mouse brain (sections and hemi-brain homogenates)
T1 sequence (P18242 65-410): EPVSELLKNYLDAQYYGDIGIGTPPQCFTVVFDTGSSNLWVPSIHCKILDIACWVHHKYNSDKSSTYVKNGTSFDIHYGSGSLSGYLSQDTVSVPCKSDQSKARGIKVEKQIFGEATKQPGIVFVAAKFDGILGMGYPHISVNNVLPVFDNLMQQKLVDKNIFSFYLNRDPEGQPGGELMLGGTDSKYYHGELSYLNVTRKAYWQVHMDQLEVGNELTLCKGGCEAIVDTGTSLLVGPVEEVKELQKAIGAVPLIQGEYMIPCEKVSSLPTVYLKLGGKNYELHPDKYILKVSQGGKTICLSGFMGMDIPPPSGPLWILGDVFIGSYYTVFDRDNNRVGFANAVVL
Description: To administer the candidate compounds in the presence or absence of inhibitor(s), eight week old mice are anesthetized with pentobarbital (40-50 mg/kg i.p.) and placed in a stereotaxic apparatus with mouse adapter (David Kopf Instruments, Tujunga, Calif.). After sacrifice, placement of the probe into the lateral ventricle is confirmed and one hemi-brain immersion-fixed and the other hemi-brain homogenized for protease assays. We determine the efficacy of the candidate compound by assaying the activity of proteases in brain homogenates (e.g., Cat B, Cat L, Cat D, and trypsin (Brunk et al., Free Radic. Biol. Med. 19:813-822, 1995; Marotta and Nixon, J. Neurochem. 43:507-516, 1984; Koshikawa et al., Am. J. Pathol. 153:937-944, 1998); see, for example, Cat D shown in FIG. 11F). […] Lipofuscin granules are defined at the EM level as having a single layer of membrane and a bipartite structure consisting of electron lucent lipoid material and electron dense material (Cataldo and Nixon, Ann. N.Y. Acad. Sci. 679: 87-109, 1993).
We also performed protease inhibitor infusion experiments in PS1M146L/APPswe transgenic mice. […] Animals were sacrificed at 12 weeks of age, and total Aβ levels were determined by ELISA following formic acid extraction (FIG. 10A). […] We have additionally measured the activity of Cat D in the brains of untreated, pepstatin-treated, or leupeptin-treated mice (FIG. 10B).

[4] = tested on: lipofuscin; assay: Lipofuscin autofluorescence in fixed brain tissue after intraventricular leupeptin infusion; type: in vivo, mice; conditions: 5 mg/mL leupeptin, four weeks, vs vehicle (20 mM HEPES)
[5] = tested on: cortical mantle; assay: Nissl staining and cortical mantle thickness in PS1M146L/APPswe transgenic and non-transgenic mice infused with leupeptin; type: in vivo
Description: (§1) Several studies have recently raised the possibility that abnormal forms of tau is metabolized in lysosomes. […] There are numerous assays for tau known in the art. For example, the processing of tau by immunocytochemistry and Western blot analysis is performed using an antibody that recognizes both phosphorylated and non-phosphorylated forms (Adamec et al., Brain Res. 757:93-101, 1997). Abnormal tau conformation and hyperphosphorylated tau is examined using suitable monoclonal antibodies. (e.g., MC1 (Jicha et al., J. Neurosci. Res. 48:128-132) and AT8 (Innogenetics, Gent, Belgium)). EM analysis can be performed to characterize cytoskeletal changes in neurons (Nixon, Bioessays 20:798-807, 1998). Alternatively, the magnitude of neurodegeneration in the mice can be determined by Nissl stain.
As a second example of the usefulness of inducing lysosomal system dysfunction by protease inhibitor infusion, we treated PS1M146L/APPswe transgenic mice, an established model of AD-like pathology (Duff et al., Nature 383:710-713, 1996). Infusion pumps containing 5 mg/mL leupeptin were implanted into PS1M146L/APPswe transgenic mice at 1 year of age. Animals were sacrificed 4 weeks later.
We confirmed this observation by measuring the thickness of the cortical mantle in these mice (FIG. 15). […] One current limitation of the existing mouse models of AD is their failure to show substantial neuronal atrophy and/or neuronal cell loss, key features of the disease in humans.

[6] = tested on: tau; assay: Western blot analysis of tau in brain of leupeptin-infused mice; type: in vivo
Description: as §1

aprotinin
accumulation of lipofuscin-like material in neurons [1]: does not

CCN(CC)CCCC(C)Nc1ccnc2cc(Cl)ccc12 (stereo not drawn) [chloroquine]
accumulation of lipofuscin-like material in neurons [1]: results in accumulation of lipofuscin-like material in neurons

CC(C)CC(=O)N[C@H](C(=O)N[C@H](C(=O)N[C@@H](CC(C)C)[C@@H](O)CC(=O)N[C@@H](C)C(=O)N[C@@H](CC(C)C)[C@@H](O)CC(=O)O)C(C)C)C(C)C [pepstatin] (Isovaleryl-VV[Sta]A[Sta]-OH)
total Aβ level relative to untreated mice ([2]; 2 mg/mL pepstatin): reduced to half the level | activity of Cat D in the brain [3]: reduced activity of Cat D

CC(=O)N[C@@H](CC(C)C)C(=O)N[C@@H](CC(C)C)C(=O)N[C@H](C=O)CCCNC(=N)N [leupeptin]
lipofuscin autofluorescence [4]: increase in lipofuscin autofluorescence; also recorded: lipotuscin autofluorescence in sections of leupeptin-treated but not vehicle-treated brains | accumulation of lipofuscin-like material in neurons [1]: results in accumulation of lipofuscin-like material in neurons | reduction of thickness of the cortex ([5]; PS1M146L/APPswe mouse, 5 mg/mL leupeptin, 4 weeks): over 20% | Nissl staining of cortex ([5]; PSM146L/APPswe mouse, 5 mg/mL leupeptin, 4 weeks, vs non-transgenic littermate also infused with leupeptin): substantial cortical neuronal hypotrophy, chromatolysis and possibly loss of neurons | thickness of the cortical mantle ([5]; non-transgenic mouse, leupeptin vs vehicle): small decrease | total Aβ increase compared to untreated mice ([2]; 10 mg/mL leupeptin): 1.8 times | activity of Cat D in the brain [3]: increased Cat D activity | lower molecular weight forms of tau (Mr~30-34 kDa) by Western blot [6]: increase in the lower molecular weight forms of tau
